In patent US20060019270A1, “Global DNA methylation assessment using bisulfite PCR” (Board of Regents The University of Texas System, priority 2004, published 2006):

Legend:
[1] = test system: LINE-1 methylation in SW48 cells; assay: COBRA (HinfI) of LINE-1 PCR, SW48 cells treated with DAC; assay type: cell-based, human; settings: 5 μM DAC for three days, decrease from 59%
Experimental: Hct116, RKO and SW48, colon cancer cell lines (American Type Culture Collection, Manassas, Va.), were cultured using standard methods. Cells were treated with 5 μM 5-aza-2′deoxycytidine (DAC) for three days prior to being harvested. DNA from cell lines and peripheral blood leukocytes was extracted using phenol-chloroform extraction methods well known to one with skill on the art.
Bisulfite modification of genomic DNA is known in the art (see Clark et. al, 1994). In brief, 1.5 μg prepared 10 mM hydroquinone (Sigma) and 520 μl of 3M Sodium Bisulfite (Sigma) at pH=5.0 were added and mixed. The samples were overlayed with mineral oil to prevent evaporation and incubated at 50° C. for 16 hours. The bisulfite treated DNA was isolated using Wizard DNA Clean-Up System (Promega). The DNA was eluted by 50 μl of warm water and 5.5 μl of 3M NaOH were added for 5 minutes. The DNA was ethanol precipitated with glycogen as a carrier and resuspended in 20 μl water. Bisulfite treated DNA was stored at −20° C. until ready for use. […]
In order to test whether Alu element […] LINE-1 methylation could approximate global methylation, COBRA, restriction digestion of the repetitive element PCR product, was used to quantitate DNA methylation in cell lines treated with 5-aza-2′deoxycytidine (DAC) (FIG. 3). […] Thus both assays reliably detected inhibition of methylation induced by DAC. […]

Alu element methylation = assay: Alu element assay (COBRA) on peripheral blood of leukemia patients treated with decitabine; assay type: in vivo, human
Experimental: FIG. 6 illustrates treatment schema of patient samples. Patients were treated as part of a Phase II study of Decitabine which was given initially a dose of 90 mg/m2 twice daily for 5 consecutive days. This dose was later decreased to 50 mg/m2 twice daily due to toxicity. In this “High” Dose Study a total dose of 500-900 mg/m2 of decitabine was given over a 5 day period. Peripheral blood specimens were collected on day 0 or 1 prior to treatment, days 2-4 during treatment, and on days 5 or 6 after the completion of treatment. In the second study, a Phase I strategy of “Low” Dose Decitabine was used. This study was designed to take advantage of Decitabine's demethylating properties. Escalating doses of Decitabine of 5, 10, 15 and 20 mg/m2 were given as ten daily doses over a two week period. The total dose delivered was only 50 to 200 mg/m2 over a 14 day period. Peripheral blood specimens were collected on day 0 or 1 prior to treatment, and during days 2-14 of treatment;
Normal colon mucosa and colon cancers were collected from consenting patients. Thirty-one matched pairs of normal colon mucosa and colon tumors were used in this study. An additional 9 normal colon samples were collected from patients undergoing colectomy for non-neoplastic reasons. DNA was isolated using standard phenol-chloroform extraction methods. DNA was bisulfite treated as described above. A previously described COBRA assay that examined Alu repetitive elements was developed as a global genome methylation assessment assay (Xiong and Laird, 1997). In brief, a 25 ul PCR reaction was carried out in 60 mM Tris-HCl pH 9.5, 15 mM Ammonium Sulfate, 5.5 mM MgCl2, 10% DMSO, 1 mM dNTP mix, 1 unit of Taq polymerase, 50 pmol of the forward primer (5′-[…]-3′) (SEQ ID NO: 1), 50 pmol of the reverse primer (5′-[…]-3′) (SEQ ID NO:2), and approximately 50 ng of bisulfite treated genomic DNA. PCR cycling conditions were 96° C. for 90 seconds, 43° C. for 60 seconds, and 72° C. for 120 seconds for 27 cycles. After the PCR reaction was complete 15 μl of MboI buffer (New England Biolabs Buffer #3) were added along with 5 units of MboI Restriction Enzyme and water to a final volume of 150 ul. The restriction digestion was incubated at 37° C. overnight to assure complete digestion. The digested PCR product was then precipitated by adding 1 μl glycogen and 2 volumes of ethanol and kept at −20° C. for at least 4 hours. Samples were then centrifuged for 30 minutes, the ethanol was poured off and the pellet was air dried prior to resuspending in a small volume (5-10 μl) of water. The digested PCR products were then run on an Agilent Biosystems DNA analyzer to quantitate the cut ([…]) and uncut ([…]) DNA. Each sample was run at least twice and the data reported is an average of all runs.
The methylation sites in Alu elements are frequently mutated from C to T by spontaneous deamination, which results in a gross underestimating of the amount of 5-methylcytosine. Therefore, control genomic DNA was double treated with SssI methylase and bisulfite treated to act as a 100% methylated control. Alu methylation is reported as a percentage of this fully methylated control standard.
Patient samples were collected from patients treated as part of two clinical studies using 5-aza-2′deoxycytidine (decitabine) as a single agent. The first study treated patients with 50-90 mg/m2 of decitabine twice daily for 5 consecutive days (See FIG. 8). The second study was a phase I study which attempted to capitalize on the demethylating properties of decitabine by using a lower dose of decitabine, 5-20 mg/m^2 once daily, for a longer period of time, 10 days over a two week period (See FIG. 8). Peripheral blood samples were collected prior to, during and after treatment. Donation of blood samples for laboratory studies was voluntary and 143 samples were collected from 41 patients participating in both studies (See Table 4). […]

SMILES: Nc1ncn([C@H]2C[C@H](O)[C@@H](CO)O2)c(=O)n1 [decitabine, 5-aza-2′-deoxycytidine]
- LINE-1 methylation after treatment with DAC [1]: 41%
- average Alu demethylation (Alu element methylation; 41 patients with leukemia, different doses, 4 to 7 days after treatment): 7.7%
- maximum decrease in Alu methylation seen in a single patient (Alu element methylation; 41 patients with leukemia, 4 to 7 days after treatment): 31.5%
- optimal demethylating dose (Alu element methylation; DNA methylation at days 5 to 6, both studies (FIG. 9B)): 15 to 20 mg/m2/day
- correlation of Alu demethylation with clinical response (Alu element methylation; High Dose Study (p=0.23)): demethylation did not correlate to response
- mean decrease of Alu element methylation (Alu element methylation; High Dose study, day 5 to 8): 10%
- correlation of Alu demethylation with clinical response (Alu element methylation; Low Dose Study (p=0.04 days 5-8, p=0.02 days 9-14)): demethylation did correlate to response
- decrease in Alu element methylation (Alu element methylation; Low dose study, day 5 to 8): 5%
- patients showing a paradoxical increase in DNA methylation with decitabine treatment (Alu element methylation; both studies): 12%
- mean decrease in Alu methylation (Alu element methylation; both studies, overall): 7.7%
- range of decrease in Alu methylation (Alu element methylation; both studies, overall): −10.3 to 31.5%
- patients showing a decrease in Alu methylation with decitabine treatment (Alu element methylation; both studies, 90.5% methylated prior to treatment): 88%
- earliest day demethylation could be detected (Alu element methylation; either dosing regimen): 2 days
- time at which demethylation plateaus (Alu element methylation; low dose decitabine): 5 to 8 days
- time for methylation to return to baseline after finishing treatment (in as little as) (Alu element methylation; patients with leukemia): 15 days
- dose dependence of demethylation at higher doses (Alu element methylation; six dose levels 5-180 mg/m2/day, day 5-6): there did not appear to be a significant increase in demethylation beyond 20 mg/m2/day
